For five compounds, IC50 results are on record in US12410262B2, “Peptide conjugates of cytotoxins as therapeutics” (Cybrexa 2, Inc., priority 2019, dated 2025).

Holding throughout (assay): cells
In one experiment the test system is HCT116. It is filed as cell-based, human. The procedure, abridged:
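DLD-1 WT (2500/well), FaDu and HeLa (5000/well) and HCT116 (3000/well) were grown in 10% FBS media and dosed in triplicate 24 h after plating. After 96 h of drug exposure at 37 °C, cells were fixed, Hoechst-stained and counted by imaging; percent growth delay was calculated versus untreated controls.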

The next experiment deals with FaDu. It is filed as cell-based. The protocol:
(§1) Cells were plated in 96 well black walled-clear bottom plates (Griener), DLD-1 WT cells at 2500 cells per well, FaDu, and HeLa cells at 5000 cells per well, and HCT116 at 3000 cells per well, in growth media containing 10% FBS. Cells were allowed to adhere at room temperature for 60 minutes before returning to a 37 C, 5% CO2 incubator. After 24 hours, media was removed and replaced with fresh growth media containing various drug concentrations. Each drug concentration was added in triplicate. Non-drug treated controls contained growth media only. Cells were returned to the incubator. Ninety-six hours after addition of drug, cells were fixed with 4% paraformaldehyde for 20 minutes and stained with Hoechst at 1 ug/mL. The plates were imaged on a Cytation 5 auto imager (BioTek) and cells were counted using CellProfiler (http://cellprofiler.org). The percent cell growth delay was calculated and data plotted using GraphPad Prism

The next experiment deals with HeLa cells. It is filed as cell-based. The protocol:
as §1

The next experiment deals with DLD-1 WT cells. It is filed as cell-based. The protocol:
as §1

Structures are written as SMILES. Read-outs that look alike come from different tables or passages of the source. Residues, ends and D or L forms follow the SMILES beside them. *: point of attachment. X2 = CC[C@@]1(O)C(=O)OCc2c1cc1n(c2=O)Cc2c-1nc1cc(F)c(C)c3c1c2[C@@H](NC(=O)O[C@H](C)[C@@H](C)S*)CC3; X4 = CC[C@@]1(O)C(=O)OCc2c1cc1n(c2=O)Cc2c-1nc1cc(F)c(C)c3c1c2[C@@H](NC(=O)O[C@@H](C)[C@H](C)S*)CC3; X1 = CC[C@@]1(O)C(=O)OCc2c1cc1n(c2=O)Cc2c-1nc1cc(F)c(C)c3c1c2[C@@H](NC(=O)O[C@H](C)[C@H](C)S*)CC3; X6 = CC[C@@]1(O)C(=O)OCc2c1cc1n(c2=O)Cc2c-1nc1cc(F)c(C)c3c1c2[C@@H](NC(=O)OCC1(S*)CCC1)CC3

By IC50 is commonly meant the concentration that gives 50% inhibition. As for `CC[C@H](C)[C@H](NC(=O)[C@@H]1CCCN1C(=O)[C@H](CC(N)=O)NC(=O)[C@H](CCC(N)=O)NC(=O)[C@H](CCC(=O)O)NC(=O)[C@H](C)N)C(=O)N[C@@H](Cc1ccc(O)cc1)C(=O)N[C@@H](Cc1c[nH]c2ccccc12)C(=O)N[C@@H](C)C(=O)N[C@@H](CCCNC(=N)N)C(=O)N[C@@H](Cc1ccc(O)cc1)C(=O)N[C@@H](C)C(=O)N[C@@H](CC(=O)O)C(=O)N[C@@H](Cc1c[nH]c2ccccc12)C(=O)N[C@@H](CC(C)C)C(=O)N[C@@H](Cc1ccccc1)C(=O)N[C@H](C(=O)N[C@H](C(=O)N1CCC[C@H]1C(=O)N[C@@H](CC(C)C)C(=O)N[C@@H](CC(C)C)C(=O)N[C@@H](CC(C)C)C(=O)N[C@@H](CC(C)C)C(=O)N[C@@H](CC(=O)O)C(=O)N[C@@H](CC(C)C)C(=O)N[C@@H](C)C(=O)N[C@@H](CC(C)C)C(=O)N[C@@H](CC(C)C)C(=O)N[C@H](C(=O)N[C@@H](CC(=O)O)C(=O)N[C@@H](C)C(=O)N[C@@H](CC(=O)O)C(=O)N[C@@H](CCC(=O)O)C(=O)N[C@@H](CSSC1(COC(=O)N[C@H]2CCc3c(C)c(F)cc4nc5c(c2c34)Cn2c-5cc3c(c2=O)COC(=O)[C@]3(O)CC)CCC1)C(=O)NCC(=O)O)C(C)C)[C@@H](C)O)[C@@H](C)O` [Compound 3] (H-AEQNPIYWARYADWLFTTPLLLLDLALLVDADEC(X6)G-OH; N-terminus and C-terminus assumed), the IC50 in the experiment with HCT116 (HCT116 cells, 96 h after addition of drug, read-out: HCT116 (IC50)) is 8330 pM; with FaDu (FaDu cells, 96 h after addition of drug, read-out: FaDu (IC50)) it was 5900 pM; with HeLa cells (HeLa cells, 96 h after addition of drug, read-out: HeLa (IC50)), 7600 pM.
As to `CC[C@H](C)[C@H](NC(=O)[C@@H]1CCCN1C(=O)[C@H](CC(N)=O)NC(=O)[C@H](CCC(N)=O)NC(=O)[C@H](CCC(=O)O)NC(=O)[C@H](C)N)C(=O)N[C@@H](Cc1ccc(O)cc1)C(=O)N[C@@H](Cc1c[nH]c2ccccc12)C(=O)N[C@@H](C)C(=O)N[C@@H](CCCNC(=N)N)C(=O)N[C@@H](Cc1ccc(O)cc1)C(=O)N[C@@H](C)C(=O)N[C@@H](CC(=O)O)C(=O)N[C@@H](Cc1c[nH]c2ccccc12)C(=O)N[C@@H](CC(C)C)C(=O)N[C@@H](Cc1ccccc1)C(=O)N[C@H](C(=O)N[C@H](C(=O)N1CCC[C@H]1C(=O)N[C@@H](CC(C)C)C(=O)N[C@@H](CC(C)C)C(=O)N[C@@H](CC(C)C)C(=O)N[C@@H](CC(C)C)C(=O)N[C@@H](CC(=O)O)C(=O)N[C@@H](CC(C)C)C(=O)N[C@@H](C)C(=O)N[C@@H](CC(C)C)C(=O)N[C@@H](CC(C)C)C(=O)N[C@H](C(=O)N[C@@H](CC(=O)O)C(=O)N[C@@H](C)C(=O)N[C@@H](CC(=O)O)C(=O)N[C@@H](CCC(=O)O)C(=O)N[C@@H](CSS[C@H](C)[C@@H](C)OC(=O)N[C@H]1CCc2c(C)c(F)cc3nc4c(c1c23)Cn1c-4cc2c(c1=O)COC(=O)[C@]2(O)CC)C(=O)NCC(=O)O)C(C)C)[C@@H](C)O)[C@@H](C)O` [Compound 4] (H-AEQNPIYWARYADWLFTTPLLLLDLALLVDADEC(X2)G-OH; N-terminus and C-terminus assumed), the IC50 worked out at 100 pM with HCT116 (96 h), 60 pM in the experiment on FaDu (96 h), 800 pM in the experiment on DLD-1 WT cells (96 h) and 70 pM with HeLa cells (96 h).
The like results for `CC[C@H](C)[C@H](NC(=O)[C@@H]1CCCN1C(=O)[C@H](CC(N)=O)NC(=O)[C@H](CCC(N)=O)NC(=O)[C@H](CCC(=O)O)NC(=O)[C@H](C)N)C(=O)N[C@@H](Cc1ccc(O)cc1)C(=O)N[C@@H](Cc1c[nH]c2ccccc12)C(=O)N[C@@H](C)C(=O)N[C@@H](CCCNC(=N)N)C(=O)N[C@@H](Cc1ccc(O)cc1)C(=O)N[C@@H](C)C(=O)N[C@@H](CC(=O)O)C(=O)N[C@@H](Cc1c[nH]c2ccccc12)C(=O)N[C@@H](CC(C)C)C(=O)N[C@@H](Cc1ccccc1)C(=O)N[C@H](C(=O)N[C@H](C(=O)N1CCC[C@H]1C(=O)N[C@@H](CC(C)C)C(=O)N[C@@H](CC(C)C)C(=O)N[C@@H](CC(C)C)C(=O)N[C@@H](CC(C)C)C(=O)N[C@@H](CC(=O)O)C(=O)N[C@@H](CC(C)C)C(=O)N[C@@H](C)C(=O)N[C@@H](CC(C)C)C(=O)N[C@@H](CC(C)C)C(=O)N[C@H](C(=O)N[C@@H](CC(=O)O)C(=O)N[C@@H](C)C(=O)N[C@@H](CC(=O)O)C(=O)N[C@@H](CCC(=O)O)C(=O)N[C@@H](CSS[C@@H](C)[C@H](C)OC(=O)N[C@H]1CCc2c(C)c(F)cc3nc4c(c1c23)Cn1c-4cc2c(c1=O)COC(=O)[C@]2(O)CC)C(=O)NCC(=O)O)C(C)C)[C@@H](C)O)[C@@H](C)O` [Compound 5] (H-AEQNPIYWARYADWLFTTPLLLLDLALLVDADEC(X4)G-OH; N-terminus and C-terminus assumed) were, in that order, 120 pM, 60 pM, 830 pM and 70 pM.
Consider `CC[C@H](C)[C@H](NC(=O)[C@@H]1CCCN1C(=O)[C@H](CC(N)=O)NC(=O)[C@H](CCC(N)=O)NC(=O)[C@H](CCC(=O)O)NC(=O)[C@H](C)N)C(=O)N[C@@H](Cc1ccc(O)cc1)C(=O)N[C@@H](Cc1c[nH]c2ccccc12)C(=O)N[C@@H](C)C(=O)N[C@@H](CCCNC(=N)N)C(=O)N[C@@H](Cc1ccc(O)cc1)C(=O)N[C@@H](C)C(=O)N[C@@H](CC(=O)O)C(=O)N[C@@H](Cc1c[nH]c2ccccc12)C(=O)N[C@@H](CC(C)C)C(=O)N[C@@H](Cc1ccccc1)C(=O)N[C@H](C(=O)N[C@H](C(=O)N1CCC[C@H]1C(=O)N[C@@H](CC(C)C)C(=O)N[C@@H](CC(C)C)C(=O)N[C@@H](CC(C)C)C(=O)N[C@@H](CC(C)C)C(=O)N[C@@H](CC(=O)O)C(=O)N[C@@H](CC(C)C)C(=O)N[C@@H](C)C(=O)N[C@@H](CC(C)C)C(=O)N[C@@H](CC(C)C)C(=O)N[C@H](C(=O)N[C@@H](CC(=O)O)C(=O)N[C@@H](C)C(=O)N[C@@H](CC(=O)O)C(=O)N[C@@H](CCC(=O)O)C(=O)N[C@@H](CSS[C@@H](C)[C@@H](C)OC(=O)N[C@H]1CCc2c(C)c(F)cc3nc4c(c1c23)Cn1c-4cc2c(c1=O)COC(=O)[C@]2(O)CC)C(=O)NCC(=O)O)C(C)C)[C@@H](C)O)[C@@H](C)O` [Compound 6] (H-AEQNPIYWARYADWLFTTPLLLLDLALLVDADEC(X1)G-OH; N-terminus and C-terminus assumed), for which the IC50 turned out to be 1000 pM in the experiment on HCT116 (96 h), 760 pM with FaDu (96 h), 13900 pM in the experiment with DLD-1 WT cells (96 h) and 620 pM in the experiment with HeLa cells (96 h).
In the case of `CC[C@@]1(O)C(=O)OCc2c1cc1n(c2=O)Cc2c-1nc1cc(F)c(C)c3c1c2[C@@H](N)CC3` [R^8H-5, (10S,23S)-23-amino-10-ethyl-18-fluoro-10-hydroxy-19-methyl-8-oxa-4,15-diazahexacyclo[14.7.1.02,14.04,13.06,11.020,24]tetracosa-1,6(11),12,14,16(24),17,19-heptaene-5,9-dione; methanesulfonic acid, reference compound], the IC50 with HCT116 (Homo sapiens, HCT-116, HCT116 cells, 96 h after addition of drug, read-out: HCT116 (IC50)) was found to be 50 pM; in the experiment with FaDu (Homo sapiens, FaDu cells, 96 h after addition of drug, read-out: FaDu (IC50)) it was 40 pM; with DLD-1 WT cells (Homo sapiens, DLD-1 WT cells, 96 h after addition of drug, IC = incomplete curve, read-out: DLD-1 (IC50)), 130 pM; in the experiment on HeLa cells (Homo sapiens, HeLa cells, 96 h after addition of drug, read-out: HeLa (IC50)), 120 pM.
